This note sets out measurements from patent EP1680415B1, “PYRROLIDINYL UREA DERIVATIVES AS ANGIOGENESIS INHIBITORS” (ABBOTT LABORATORIES, priority 2003, dated 2005).

The subject of the first experiment is HMVEC. The experiment is described as follows: human microvascular endothelial (HMVEC) migration assay. The conditions noted are these: Homo sapiens; Inhibition of HMVEC migration; 0.1 nM; activators 15 ng/mL bFGF/VEGF; 4 hours at 37 °C; compared to a positive control. The class given is cell-based. The procedure: The human microvascular endothelial (HMVEC) migration assay was run according to the procedure of S. S. Tolsma, O. V. Volpert, D. J. Good, W. F. Frazier, P. J. Polverini and N. Bouck, J. Cell Biol. 122, 497-511 (1993).
The HMVEC migration assay was carried out using Human Microvascular Endothelial Cells-Dermal (single donor) and Human Microvascular Endothelial Cells, (neonatal). The BCE or HMVEC cells were starved overnight in DME containing 0.01% bovine serum albumin (BSA). Cells were then harvested with trypsin and resuspended in DME with 0.01 % BSA at a concentration of 1.5 X 10^6 cells per mL. Cells were added to the bottom of a 48 well modified Boyden chamber (Nucleopore Corporation, Cabin John, MD). The chamber was assembled and inverted, and cells were allowed to attach for 2 hours at 37 °C to polycarbonate chemotaxis membranes (5 µm pore size) that had been soaked in 0.01 % gelatin overnight and dried. The chamber was then reinverted, and test substances (total volume of 50 µL), including activators, 15 ng/mL bFGF/VEGF, were added to the wells of the upper chamber. The apparatus was incubated for 4 hours at 37 °C. Membranes were recovered, fixed and stained (Diff Quick, Fisher Scientific) and the number of cells that had migrated to the upper chamber per 3 high power fields counted. Background migration to DME + […] was subtracted and the data reported as the number of cells migrated per 10 high power fields (400X) or, when results from multiple experiments were combined, as the percent inhibition of migration compared to a positive control.
What is called inhibition is how much of the control response was suppressed. Read a high inhibition as a response far below the control. Compound `Cc1ccc(C(=O)N2CC[C@@H](NC(=O)NCc3ccccc3)C2)cn1` [Example 1, N-benzyl-N'-{(3R)-1-[(6-methylpyridin-3-yl)carbonyl]pyrrolidin-3-yl}urea] showed an inhibition at 0.0001 µM of 80%. The compound `Cc1ccc(C(=O)N2CC[C@@H](NC(=O)N3CCCC3)C2)cn1` [Example 2, N-{(3R)-1-[(6-methyl-3-pyridinyl)carbonyl]-3-pyrrolidinyl}-1-pyrrolidinecarboxamide] yielded an inhibition at 0.0001 µM of 98%. Compound `Cc1ccc(C(=O)N2CC[C@@H](NC(=O)NCCCN3CCOCC3)C2)cn1` [Example 3, N-{(3R)-1-[(6-methyl-3-pyridinyl)carbonyl]-3-pyrrolidinyl}-N'-[3-(4-morpholinyl)propyl]urea] displayed an inhibition at 0.0001 µM of 60%. On to `Cc1ccc(C(=O)N2CC[C@@H](NC(=O)NCCc3c[nH]cn3)C2)cn1` [Example 4, N-[2-(1H-imidazol-4-yl)ethyl]-N'-{(3R)-1-[(6-methyl-3-pyridinyl)carbonyl]-3-pyrrolidinyl}urea], for which the inhibition at 0.0001 µM amounted to 69%.

`Cc1ccc(C(=O)N2CC[C@@H](NC(=O)NCCc3c[nH]c4ccccc34)C2)cn1` [Example 5, N-[2-(1H-indol-3-yl)ethyl]-N'-{(3R)-1-[(6-methyl-3-pyridinyl)carbonyl]-3-pyrrolidinyl}urea] returned an inhibition at 0.0001 µM of 59%. In turn, `CCNC(=O)N[C@@H]1CCN(C(=O)c2ccc(C)nc2)C1` [Example 6, N-ethyl-N'-{(3R)-1-[(6-methyl-3-pyridinyl)carbonyl]-3-pyrrolidinyl}urea] came in with an inhibition at 0.0001 µM of 70%. `Cc1ccc(C(=O)N2CC[C@@H](NC(=O)NCC(C)C)C2)cn1` [Example 7, N-isobutyl-N'-{(3R)-1-[(6-methyl-3-pyridinyl)carbonyl]-3-pyrrolidinyl}urea] came in with an inhibition at 0.0001 µM of 90%. `CCCC(C)NC(=O)N[C@@H]1CCN(C(=O)c2ccc(C)nc2)C1` (stereo partly drawn) [Example 8, N-(1-methylbutyl)-N'-{(3R)-1-[(6-methyl-3-pyridinyl)carbonyl]-3-pyrrolidinyl}urea] yielded an inhibition at 0.0001 µM of 56%.

With `Cc1ccc(C(=O)N2CC[C@@H](NC(=O)NCC(C)(C)C)C2)cn1` [Example 9, N-{(3R)-1-[(6-methyl-3-pyridinyl)carbonyl]-3-pyrrolidinyl}-N'-neopentylurea], the inhibition at 0.0001 µM is 71%. Consider `Cc1ccc(C(=O)N2CC[C@@H](NC(=O)NCCC(C)(C)C)C2)cn1` [Example 10, N-(3,3-dimethylbutyl)-N'-{(3R)-1-[(6-methyl-3-pyridinyl)carbonyl]-3-pyrrolidinyl}urea], for which testing at 0.0001 µM gave an inhibition of 65%.

Compound `Cc1ccc(C(=O)N2CC[C@@H](NC(=O)NCC(F)(F)F)C2)cn1` [Example 11, N-{(3R)-1-[(6-methyl-3-pyridinyl)carbonyl]-3-pyrrolidinyl}-N'-(2,2,2-trifluoroethyl)urea] yielded an inhibition at 0.0001 µM of 81%. Regarding `COCC(C)NC(=O)N[C@@H]1CCN(C(=O)c2ccc(C)nc2)C1` (stereo partly drawn) [Example 12, N-(2-methoxy-1-methylethyl)-N'-{(3R)-1-[(6-methyl-3-pyridinyl)carbonyl]-3-pyrrolidinyl}urea], at 0.0001 µM the inhibition was 77%. Same read-out and setting: then `CCOCCNC(=O)N[C@@H]1CCN(C(=O)c2ccc(C)nc2)C1` [Example 13, N-(2-ethoxyethyl)-N'-{(3R)-1-[(6-methyl-3-pyridinyl)carbonyl]-3-pyrrolidinyl}urea], with 83%. In turn, `Cc1ccc(C(=O)N2CC[C@@H](NC(=O)NCC3CCOC3)C2)cn1` (stereo partly drawn) [Example 14, N-{(3R)-1-[(6-methyl-3-pyridinyl)carbonyl]-3-pyrrolidinyl}-N'-(tetrahydro-3-furanylmethyl)urea] yielded an inhibition at 0.0001 µM of 57%. Take `Cc1ccc(C(=O)N2CC[C@@H](NC(=O)NCC#N)C2)cn1` [Example 15, N-(cyanomethyl)-N'-{(3R)-1-[(6-methyl-3-pyridinyl)carbonyl]-3-pyrrolidinyl}urea]: the inhibition at 0.0001 µM worked out at 64%. Same read-out and setting: then `C#CCNC(=O)N[C@@H]1CCN(C(=O)c2ccc(C)nc2)C1` [Example 16, N-{(3R)-1-[(6-methyl-3-pyridinyl)carbonyl]-3-pyrrolidinyl}-N'-2-propynylurea], with 72%; and `Cc1ccc(C(=O)N2CC[C@@H](NC(=O)NCC3CC3)C2)cn1` [Example 17, N-(cyclopropylmethyl)-N'-{(3R)-1-[(6-methyl-3-pyridinyl)carbonyl]-3-pyrrolidinyl}urea], with 76%. With `Cc1ccc(C(=O)N2CC[C@@H](NC(=O)NC3CCC3)C2)cn1` [Example 18, N-cyclobutyl-N'-{(3R)-1-[(6-methyl-3-pyridinyl)carbonyl]-3-pyrrolidinyl}urea], 0.0001 µM produced 61% inhibition. As to `Cc1ccc(C(=O)N2CC[C@@H](NC(=O)NC3CCCCC3)C2)cn1` [Example 19, N-cyclohexyl-N'-{(3R)-1-[(6-methyl-3-pyridinyl)carbonyl]-3-pyrrolidinyl}urea], the inhibition at 0.0001 µM was found to be 63%. For the compound `Cc1ccc(C(=O)N2CC[C@@H](NC(=O)NC3CCC(C)CC3)C2)cn1` (stereo partly drawn) [Example 20, N-(4-methylcyclohexyl)-N'-{(3R)-1-[(6-methyl-3-pyridinyl)carbonyl]-3-pyrrolidinyl}urea], testing at 0.0001 µM gave an inhibition of 67%.

Take `Cc1ccc(C(=O)N2CC[C@@H](NC(=O)NCC3CCCCC3)C2)cn1` [Example 21, N-(cyclohexylmethyl)-N'-{(3R)-1-[(6-methyl-3-pyridinyl)carbonyl]-3-pyrrolidinyl}urea]: 0.0001 µM produced 90% inhibition.

`Cc1ccc(C(=O)N2CC[C@@H](NC(=O)NC3CCCCCC3)C2)cn1` [Example 22, N-cycloheptyl-N'-{(3R)-1-[(6-methyl-3-pyridinyl)carbonyl]-3-pyrrolidinyl}urea]: at 0.0001 µM the inhibition was 70%. On to `Cc1ccc(C(=O)N2CC[C@@H](NC(=O)N[C@H](CO)CC(C)C)C2)cn1` [Example 23, N-[(1S)-1-(hydroxymethyl)-3-methylbutyl]-N'-{(3R)-1-[(6-methyl-3-pyridinyl)carbonyl]-3-pyrrolidinyl}urea], for which testing at 0.0001 µM gave an inhibition of 93%. Compound `Cc1ccc(C(=O)N2CC[C@@H](NC(=O)N[C@@H](CO)CC(C)C)C2)cn1` [Example 24, N-[(1R)-1-(hydroxymethyl)-3-methylbutyl]-N'-{(3R)-1-[(6-methyl-3-pyridinyl)carbonyl]-3-pyrrolidinyl}urea] yielded an inhibition at 0.0001 µM of 70%. `Cc1ccc(C(=O)N2CC[C@@H](NC(=O)N[C@H](CO)c3ccccc3)C2)cn1` [Example 25, N-[(1S)-2-hydroxy-1-phenylethyl]-N'-{(3R)-1-[(6-methyl-3-pyridinyl)carbonyl]-3-pyrrolidinyl}urea] came in with an inhibition at 0.0001 µM of 80%. With `Cc1ccc(C(=O)N2CC[C@@H](NC(=O)NCCCOC(C)C)C2)cn1` [Example 26, N-(3-isopropoxypropyl)-N'-{(3R)-1-[(6-methyl-3-pyridinyl)carbonyl]-3-pyrrolidinyl}urea], the inhibition at 0.0001 µM was 75%. The compound `Cc1ccc(C(=O)N2CC[C@@H](NC(=O)NCC(O)CO)C2)cn1` (stereo partly drawn) [Example 27, N-(2,3-dihydroxypropyl)-N'-{(3R)-1-[(6-methyl-3-pyridinyl)carbonyl]-3-pyrrolidinyl}urea] showed an inhibition at 0.0001 µM of 83%.

The same experiment, now with this note: Inhibition of HMVEC migration; 0.01 nM; activators 15 ng/mL bFGF/VEGF; 4 hours at 37 °C; compared to a positive control.
In the case of “4-methyl-N-{(3R)-1-[(6-methylpyridin-3-yl)carbonyl]pyrrolidin-3-yl}-1,4-diazepane-1-carboxamide [Example 94]”, the “% Inhibition @ 0.01 nM” value is recorded as 57%.
